Test results reported in publication PMC7608663, “Pharmacokinetic–pharmacodynamic modelling of the hypoglycaemic effect of pulsatile administration of human insulin in rats” (Scientific Reports, 2020).

Legend:
[1] = system: plasma glucose concentration; test: Hypoglycaemic effect (plasma glucose) after intravenous INS, PK-PD indirect response modelling; format: in vivo, rat
Text: An indirect response model was used to analyse the PK–PD relationship. The differential equation for the INS stimulus of the model is as follows:5 dGlc/dt=KGin-1+Smax∙SIG^γ/SC50^γ+SIG^γkGout∙Glc, where Glc is the plasma glucose concentration (mg/dL), SIG is the theoretical signal strength concerned with the hypoglycaemic effect of INS, Smax is the maximum effect, SC50 is the SIG producing 50% of Smax, r is Hill’s constant, KGin is the zero-order rate constant concerned with endogenous glucose production, and kGout is the first-order rate constant (min^−1) concerned with glucose elimination. Before INS is administered, the observed baseline level of Glc is maintained as G00 (105.12 mg/dL), which is determined by KGin = kGout.G00. Equation (5) can comprehensively express the mechanism of action of INS that is not assumed in the following model.
To assess the contribution of the receptor-binding process of INS to the hypoglycaemic effect, the INS receptor-based PK–PD model (IR model) was designed as follows:6 ϕ=CIns∙100/Kd+CIns-ϕ00.
We assumed that SIG is equal to the value of Φ in this model. To evaluate the contribution of the translocation process to the hypoglycaemic effect, the GLUT4 translocation-based PK–PD model (GT model) was designed as follows:7 dG4A/dt=α∙CIns-C00-G4A/TAB, 8 dG4B/dt=G4A/TAB-G4B/TBA. […]

[2] = rat, in vivo, iv; SD
Description: Animal experiments were performed following the procedures as described earlier[26], with slight adaptations. In short, male Wistar rats (Japan SLC, Shizuoka, Japan) weighing 270–320 g were used in this study. Rats were housed in controlled environmental facilities (temperature: 24 ± 1 °C, humidity: 55% ± 10%) under a 12:12-h light–dark cycle (06:00 h/18:00 h) for more than 1 week and allowed free access to a standard diet and tap water. One day before the experiment, rats were anaesthetized with ethyl ether and implanted surgically with a phycon tube connected to a PE50 catheter in the jugular vein for drug administration and another phycon-PE50 catheter in the femoral vein for blood sampling. Both catheters were externalized through the back in the neck region and secured. Unless otherwise specified, all animal experiments were conducted without restraint or anaesthesia and in a fasted state. On the day of the experiment, each rat was housed in an individual cage and left alone for at least 1 h. INS was dissolved in a 0.1% bovine serum albumin solution. Pulsatile administration of INS was performed by repeated intravenous bolus injections at constant intervals of 6–60 min within 2 h (total dose: 0.5 IU/kg). As controls, a single bolus injection or 2-h infusion were also conducted at doses of 0.5 IU/kg and 0.25 IU/kg/h, respectively. INS (0.025–0.5 IU/kg) was intravenously injected to estimate PK and PD parameters. Blood samples (≤ 0.1 mL) were withdrawn from the femoral vein before and at designated times after dosing. The blood samples were transferred to heparinized tubes, then centrifuged (12,000 × g, 5 min). The isolated plasma was stored frozen at − 20 °C until analysis. Immunoreactive INS concentrations in plasma were determined using an enzyme-linked immunosorbent assay (ELISA) kit (Shibayagi, Gunma, Japan). The mutarotase glucose oxidase method kit (Wako Pure Chemical Industries, Osaka, Japan) was used to measure plasma glucose concentrations. […]
The concentration–time data were analysed by the nonlinear regression program FKDM[27]. […]

[3] = system: INS receptors, rat soleus muscle cells; conditions: fixed value in the IR model, read-out: dissociation constant (Kd); cited from earlier work
Text: In the post-prandial state, the uptake of glucose from the blood in vivo mainly occurs in skeletal muscle, which expresses INS receptors. […] Although there are various kinds of skeletal muscle in the body, it would not be useful to individually model each receptor in all skeletal muscles, because this complicates the model. […] We assumed that SIG is equal to the value of Φ in this model. To evaluate the contribution of the translocation process to the hypoglycaemic effect, the GLUT4 translocation-based PK–PD model (GT model) was designed as follows:7 dG4A/dt=α∙CIns-C00-G4A/TAB, 8 dG4B/dt=G4A/TAB-G4B/TBA. || page 3: Parameters Estimated values Pharmacokinetic parameters k12 (min-1) 0.843 ± 0.25 k (min-1) 0.419 ± 0.073 21 k10 (min-1) 0.000314 ± 0.0079 Km (ng/kg) 1538 ± 624 Vmax (ng/kg/min) 3243 ± 649 Vc (mL/kg) 29.3 ± 6.6 Pharmacodynamic parameters of the IR model Kd (nmol/L) 2.062 FIX SC50IR (%) 7.60 ± 1.8 SmaxIR 3.01 ± 0.31 γ 2.25 ± 1.8 IR kGoutIR (min-1) 0.0208 ± 0.0018 Pharmacodynamic parameters of the GT model α 0.153 ± 0.56 T (min) 3 FIX AB TBA (min) 20 FIX SC50GT 100.22 ± 354 SmaxGT 2.58 ± 1.3 γGT 0.736 ± 0.11 kGoutGT (min-1) 0.141 ± 0.021 Supplementary Table S1. Pharmacokinetic and pharmaco ...

Substance: Human recombinant INS (Humulin R)
- time required for the maximal hypoglycaemic effect ([1]; after single i.v. bolus administration, rats (Fig. 3)): about 20 min
- area between the effect-time curve and the basal concentration (AUE), pulsatile administration compared with single bolus ([1]; total 0.5 IU/kg i.v. within 2 h, 2-20 pulses vs bolus 0.5 IU/kg, rats, depends on pulse rate, saturated above four injections, Dunnett's test, n = 3-4): significantly higher
- Km, Michaelis-Menten kinetic constant of elimination [2]: 1538 ± 624 ng/kg
- Vc, volume of distribution for the central (plasma) INS compartment [2]: 0.0293 ± 0.0066 L/kg
- Vmax, Michaelis-Menten kinetic constant of elimination [2]: 3243 ± 649 ng/kg/min
- Kd [3]: 2.06 nM
